Test [1] has as its system LPS-induced TNFα secretion in monocyte-derived macrophages (MdM). Put plainly: MdM assay: LPS-triggered TNFα (ELISA). The test is classed as cell-based, human. Particulars: Homo sapiens, Macrophage, LPS-triggered TNFα inhibition. In a few lines:
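Human CD14+ monocytes isolated from buffy-coat PBMCs by magnetic beads, differentiated to macrophages; on day 10 compound preincubated 1 h at 37 °C, then LPS 200 ng/mL added (0.2% DMSO). Supernatant taken after 20 h; TNFα quantified by sandwich ELISA against standard curve.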
A general note: In an ELISA, binding on a coated surface is turned into a signal by an enzyme label.

Test [2] concerns the target T1, SIK2 (Homo sapiens, UniProt Q9H0K1).
T1 construct: purchased ThermoFisher Scientific PV4792
Put plainly: biochemical. Particulars: ADP-Glo SIK kinase assay. The method, then:
(§1) The ADP-Glo™ kinase assay is a luminescent technology assay which measures the ADP formed from a kinase reaction. […] In a second step the kinase reactions are terminated and all the remaining ATP is depleted. In a final step the ADP is converted into ATP and this newly synthesized ATP is measured by using a luciferase/luciferin reaction. The generated light is measured using an Envision plate reader, wherein the luminescent signal obtained positively correlates with the kinase activity.
(§2) 1% DMSO and 10 μM staurosporine final concentrations are used as negative and positive controls.
(§3) 2 μL enzyme-substrate mixture is added to the assay plates.
(§4) The reaction is started by adding 2 μL diluted ATP on the assay plates. Plates are centrifuged for a few seconds at 1000 rpm and gently shaken for 2 min followed by an incubation at RT for 120 min.
(§5) The reactions are stopped and the unconsumed ATP is depleted by adding 5 μL ADP-Glo Reagent (Promega, Cat #V912B) to the reaction. The plates are centrifuged for a few seconds at 1000 rpm and incubated at RT for 40 min (ATP depletion).
(§6) The ADP is converted to ATP and luciferase and luciferin is introduced to detect ATP by adding 10 μL Kinase Detection Reagent (Promega, Cat #V913B+V914B) to the reaction. The plates are centrifuged for a few seconds at 1000 rpm and incubated at RT for 30 min (ADP detection).
(§7) Luminescence is measured on an Envision plate reader (PerkinElmer Inc.).
For orientation: ADP-Glo first removes unused ATP, then detects ADP through luciferase.

The target of test [3] is T2, SIK1 (Homo sapiens, UniProt P57059).
T2 construct: purchased Carna Biosciences 02-131
T2 sequence (P57059 whole entry): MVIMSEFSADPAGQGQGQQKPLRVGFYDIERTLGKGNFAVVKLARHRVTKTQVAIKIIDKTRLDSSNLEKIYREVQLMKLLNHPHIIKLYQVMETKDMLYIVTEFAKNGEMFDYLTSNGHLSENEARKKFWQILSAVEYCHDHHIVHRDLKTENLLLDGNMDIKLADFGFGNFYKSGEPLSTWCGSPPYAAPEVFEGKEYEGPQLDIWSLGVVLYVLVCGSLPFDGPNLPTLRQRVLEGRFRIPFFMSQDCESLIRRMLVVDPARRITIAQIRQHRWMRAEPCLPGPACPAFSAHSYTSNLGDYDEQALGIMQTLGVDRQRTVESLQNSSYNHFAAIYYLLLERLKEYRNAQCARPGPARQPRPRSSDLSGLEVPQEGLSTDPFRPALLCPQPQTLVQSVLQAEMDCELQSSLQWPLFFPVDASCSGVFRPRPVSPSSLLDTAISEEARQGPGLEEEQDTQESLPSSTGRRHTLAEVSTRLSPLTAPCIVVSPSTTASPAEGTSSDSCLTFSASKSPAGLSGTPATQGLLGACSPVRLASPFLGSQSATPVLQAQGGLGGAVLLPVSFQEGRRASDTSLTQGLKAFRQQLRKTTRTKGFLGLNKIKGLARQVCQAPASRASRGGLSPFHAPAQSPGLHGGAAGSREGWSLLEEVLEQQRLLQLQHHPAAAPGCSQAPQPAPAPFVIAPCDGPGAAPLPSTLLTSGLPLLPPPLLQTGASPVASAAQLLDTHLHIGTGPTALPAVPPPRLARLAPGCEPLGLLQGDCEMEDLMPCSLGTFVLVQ
Briefly: biochemical. Particulars: ADP-Glo SIK kinase assay. On the procedure:
as §1, §2, §3, §4, §5, §6, §7

Test [4] deals with T3, SIK3 (Homo sapiens, UniProt Q9Y2K2).
T3 construct: purchased SignalChem S12-11G-100
T3 sequence (Q9Y2K2 whole entry): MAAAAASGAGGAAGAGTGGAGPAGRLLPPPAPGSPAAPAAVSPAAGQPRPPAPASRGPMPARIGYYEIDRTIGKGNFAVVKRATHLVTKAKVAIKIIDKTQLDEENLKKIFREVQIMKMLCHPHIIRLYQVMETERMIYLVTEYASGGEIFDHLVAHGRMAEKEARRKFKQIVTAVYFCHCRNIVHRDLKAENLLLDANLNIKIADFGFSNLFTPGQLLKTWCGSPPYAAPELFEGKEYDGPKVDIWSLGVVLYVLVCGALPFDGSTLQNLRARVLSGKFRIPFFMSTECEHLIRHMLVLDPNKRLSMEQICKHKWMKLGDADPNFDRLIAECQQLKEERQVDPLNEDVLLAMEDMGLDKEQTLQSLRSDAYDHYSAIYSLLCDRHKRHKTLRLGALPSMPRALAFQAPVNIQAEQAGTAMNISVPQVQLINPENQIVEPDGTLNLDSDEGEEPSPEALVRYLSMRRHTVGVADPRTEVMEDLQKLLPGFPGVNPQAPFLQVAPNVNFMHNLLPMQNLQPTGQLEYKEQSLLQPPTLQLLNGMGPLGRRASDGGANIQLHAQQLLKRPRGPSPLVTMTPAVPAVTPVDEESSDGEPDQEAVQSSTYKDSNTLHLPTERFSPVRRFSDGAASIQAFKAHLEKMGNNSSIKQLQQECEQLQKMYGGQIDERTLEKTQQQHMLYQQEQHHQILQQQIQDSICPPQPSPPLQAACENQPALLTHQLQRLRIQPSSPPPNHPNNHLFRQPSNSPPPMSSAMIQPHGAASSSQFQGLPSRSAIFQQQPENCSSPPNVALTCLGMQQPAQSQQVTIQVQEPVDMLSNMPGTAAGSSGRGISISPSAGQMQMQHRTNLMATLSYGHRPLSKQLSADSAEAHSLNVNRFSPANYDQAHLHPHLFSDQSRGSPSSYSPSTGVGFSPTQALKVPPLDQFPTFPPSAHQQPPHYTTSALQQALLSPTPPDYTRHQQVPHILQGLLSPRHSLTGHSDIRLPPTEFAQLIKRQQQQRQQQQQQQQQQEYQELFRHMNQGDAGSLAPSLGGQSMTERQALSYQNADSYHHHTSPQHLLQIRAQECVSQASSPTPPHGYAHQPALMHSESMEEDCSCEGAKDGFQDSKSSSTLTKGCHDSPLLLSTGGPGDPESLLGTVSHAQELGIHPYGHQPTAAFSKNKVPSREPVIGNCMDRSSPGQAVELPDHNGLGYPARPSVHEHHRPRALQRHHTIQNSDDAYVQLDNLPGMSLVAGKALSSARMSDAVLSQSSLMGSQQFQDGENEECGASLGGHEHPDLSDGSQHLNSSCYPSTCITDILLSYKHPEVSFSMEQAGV
Put plainly: biochemical. Particulars: ADP-Glo SIK kinase assay. On the procedure:
as §1, §2, §3, §4, §5, §6, §7

The target of test [5] is T1, SIK2. Briefly: biochemical. As to conditions: 33P radioactive SIK kinase assay, AMARA peptide, 10 μM ATP. In a few lines:
(§8)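 Read-out: ^33P incorporated into AMARA peptide, counted on filter plates, taken as kinase activity. Reactions start on addition of labeled/unlabeled ATP to enzyme plus substrate and end with phosphoric acid. Controls: 1% DMSO (negative) and 10 μM staurosporine (positive), final.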

Test [6] concerns the target T2, SIK1. Briefly: biochemical. As to conditions: 33P radioactive SIK kinase assay, AMARA peptide, 10 μM ATP; read-out: SIK1 IC50. In a few lines: as §8
Test [7] deals with T3, SIK3. Put plainly: biochemical. In a few lines:
as §8

Molecules are shown by their SMILES. Where two headings read alike, the source gives them in different places.

T1 sequence (Q9H0K1 whole entry): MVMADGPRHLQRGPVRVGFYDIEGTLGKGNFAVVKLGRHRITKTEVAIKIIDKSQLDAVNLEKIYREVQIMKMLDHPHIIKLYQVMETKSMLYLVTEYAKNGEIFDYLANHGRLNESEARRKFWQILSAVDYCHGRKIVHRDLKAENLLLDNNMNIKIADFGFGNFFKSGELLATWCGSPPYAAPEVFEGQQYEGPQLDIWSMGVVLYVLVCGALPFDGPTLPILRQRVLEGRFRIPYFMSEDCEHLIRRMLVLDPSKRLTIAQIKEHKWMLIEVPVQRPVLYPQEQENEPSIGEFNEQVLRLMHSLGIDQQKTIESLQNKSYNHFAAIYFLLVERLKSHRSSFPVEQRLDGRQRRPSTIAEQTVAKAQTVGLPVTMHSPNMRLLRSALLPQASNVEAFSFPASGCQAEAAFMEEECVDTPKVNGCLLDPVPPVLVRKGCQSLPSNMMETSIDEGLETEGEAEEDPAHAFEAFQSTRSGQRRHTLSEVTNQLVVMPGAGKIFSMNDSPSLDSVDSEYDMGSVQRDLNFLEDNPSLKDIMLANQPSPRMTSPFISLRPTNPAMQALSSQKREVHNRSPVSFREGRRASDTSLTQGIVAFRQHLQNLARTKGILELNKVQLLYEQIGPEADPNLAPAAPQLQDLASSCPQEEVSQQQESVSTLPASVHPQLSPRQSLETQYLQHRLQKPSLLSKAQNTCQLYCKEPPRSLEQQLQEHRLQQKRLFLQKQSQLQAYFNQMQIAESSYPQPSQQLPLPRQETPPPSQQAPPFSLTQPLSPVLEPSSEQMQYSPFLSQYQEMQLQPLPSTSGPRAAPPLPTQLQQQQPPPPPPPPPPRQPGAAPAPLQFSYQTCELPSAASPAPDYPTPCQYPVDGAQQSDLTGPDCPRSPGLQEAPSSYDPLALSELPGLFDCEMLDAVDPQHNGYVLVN

For `CCOC(=O)C(C)(C)n1cc(-c2ccn3c(-c4cc(OC)c(C(=O)NCC(F)(F)F)c(OC)c4)cnc3c2)cn1` [Cpd 295, ethyl 2-[4-[3-[3,5-dimethoxy-4-(2,2,2-trifluoroethyl-carbamoyl)phenyl]imidazo[1,2-a]pyridin-7-yl]pyrazol-1-yl]-2-methyl-propanoate], the EC50 in test [1] lay in the range of 0.1 to 100 nM. Besides, the IC50 in test [2], in test [3] and in test [4] was 0.01 to 10 nM in each case.
Consider `CCOC(=O)C(C(C)C)n1cc(-c2ccn3c(-c4cc(OC)c(C(=O)NCC(F)(F)F)c(OC)c4)cnc3c2)cn1` (centres unmarked) [Cpd 296, ethyl 2-[4-(3-[3,5-dimethoxy-4-(2,2,2-trifluoro-ethylcarbamoyl)phenyl]imidazo[1,2-a]pyridin-7-yl]pyrazol-1-yl]-3-methyl-butanoate], for which, in test [1], the EC50 lay within 0.1 to 100 nM. For the same molecule, the IC50 in test [2], in test [3] and in test [4] was 0.01 to 10 nM in each case.
Consider `COc1cc(-c2cnc3cc(-c4cnn(CC(=O)OCC5CCCO5)c4)ccn23)cc(OC)c1C(=O)NCC(F)(F)F` (centres unmarked) [Cpd 297, tetrahydrofuran-2-ylmethyl 2-[4-[3-[3,5-dimethoxy-4-(2,2,2-trifluoro-ethylcarbamoyl)phenyl]imidazo[1,2-a]pyridin-7-yl]pyrazol-1-yl]acetate], for which the EC50 in test [1] was 100 to 1000 nM. In addition, the IC50 in test [2], in test [3] and in test [4] was 0.01 to 10 nM in each case.
In test [1], `CCOC(=O)COc1cn2c(-c3cc(OC)c(C(=O)NC4CC4)c(OC(F)F)c3)cnc2cc1-c1cnn(C)c1` [Cpd 298, ethyl 2-[3-[4-(cyclopropyl-carbamoyl)-3-(difluoromethoxy)-5-methoxy-phenyl]-7-(1-methylpvrazol-4-yl)imidazo[1,2-a]pyridin-6-yl]oxyacetate] showed an EC50 of 1000 to 5000 nM. Besides, the IC50 in test [2], in test [3] and in test [4] was 0.01 to 10 nM each time.
With `COc1cc(-c2cnc3cc(-c4cnn(C)c4)c(OCC(=O)O)cn23)cc(OC(F)F)c1C(=O)NC1CC1` [Cpd 299, 2-[3-[4-(cyclopropyl-carbamoyl)-3-(difluoromethoxy)-5-methoxy-phenyl]-7-(1-melhylpyrazol-4-yl)imidazo[1,2-a]pyridin-6-yl]oxyacetic acid], the EC50 in test [1] was greater than 5000 nM. Also, the results for the IC50 in test [2], in test [3] and in test [4] were 0.01 to 10 nM, 10 to 100 nM and 10 to 100 nM, respectively.
In turn, `CCN(CC)CCOC(=O)C(C)(C)n1cc(-c2ccn3c(-c4cc(OC)c(C(=O)NCC(F)(F)F)c(OC)c4)cnc3c2)cn1` [Cpd 305, 2-(diethylamino)ethyl 2-[4-[3-[3,5-dimethoxy-4-(2,2,2-trifluoroethyl-carbamoyl)phenyl]imidazo[1,2-a]pyridin-7-yl]pyrazol-1-yl]-2-methyl-propanoate] came in with an EC50 in test [1] of 100 to 1000 nM. For the same molecule, the IC50 in test [2], in test [3] and in test [4] was 0.01 to 10 nM each time.
As for `COc1cc(-n2cnc3cc(-c4cnn(C)c4)ccc32)cc(OC)c1C(=O)NC(C)(C)C` [compound 76, N-tert-butyl-2,6-dimethoxy-4-[5-(1-methylpyrazol-4-yl)benzimidazol-1-yl]benzamide], the IC50 in test [5], in test [6], in test [7], in test [2], in test [3] and in test [4] was greater than 500 nM each time. Moreover, in test [1], the EC50 is greater than 5000 nM.
Consider `COc1cc(-c2cnc3cc(-c4cnn(C)c4)ccn23)cc(OC)c1C(=O)N1CC(C(F)(F)F)C1` [compound 213, [2,6-dimethoxy-4-[7-(1-methylpvrazol-4-yl)imidazo[1,2-a]pyridin-3-yl]phenyl]-[3-(trifluoromethyl)azetidin-1-yl]methanone], for which the IC50 in test [5], in test [6], in test [7], in test [2], in test [3] and in test [4] was 0.01 to 10 nM each time. Also, the concentration giving a half-maximal response (EC50) in test [1] was 0.1 to 100 nM.
For the molecule `COc1cc(-c2cnc3cc(-c4cn(C)cn4)ccn23)cc(OC)c1C(=O)N[C@@H](C)C(F)(F)F` [compound 216, 2,6-dimethoxy-4-[7-(1-methylimidazol-4-yl)imidazo[1,2-a]pyridin-3-yl]-N-[(1S)-2,2,2-trifluoro-1-methyl-ethyl]benzamide], the IC50 in test [5] lay within 10 to 100 nM; in test [6], 100 to 500 nM; in test [7] it was 100 to 500 nM; in test [2] it was 10 to 100 nM; in test [3] it was 100 to 500 nM; in test [4] it was 10 to 100 nM. For the same molecule, the EC50 in test [1] lay within 1000 to 5000 nM.
With `COc1cc(-c2cnc3cc(-c4cnnc(C)c4)ccn23)cc(OC)c1C(=O)NCC(F)(F)F` [compound 252, 2,6-dimethoxy-4-[7-(6-methylpyridazin-4-yl)imidazo[1,2-a]pyridin-3-yl]-N-(2,2,2-trifluoroethyl)benzamide], the IC50 lay within 10 to 100 nM in test [5]; 100 to 500 nM in test [6]; 0.01 to 10 nM in test [7]; 10 to 100 nM in test [2]; 100 to 500 nM in test [3]; 0.01 to 10 nM in test [4]. Moreover, the EC50 in test [1] is 100 to 1000 nM.
As for `COc1cc(-c2cnc3cc(-c4cnn(C)c4)ccn23)cc2c1C(=O)N(CC(F)(F)F)C2` [compound 261, 7-methoxy-5-[7-(1-methylpyrazol-4-yl)imidazo[l,2-a]pyridin-3-yl]-2-(2,2,2-trifluoroethyl)isoindolin-1-one], the IC50 lay within 0.01 to 10 nM in test [5]; 10 to 100 nM in test [6]; 0.01 to 10 nM in test [7]; 0.01 to 10 nM in test [2]; 0.01 to 10 nM in test [3]; 0.01 to 10 nM in test [4]. Further, the EC50 in test [1] lay within 0.1 to 100 nM.
In the case of `COc1ccc(-c2ccn3c(-c4cc(OC)c(C(=O)NC5CC5)c(OC(F)F)c4)cnc3c2)cn1` [compound 267, N-cyclopropyl-2-(difluoromethoxy)-6-methoxy-4-[7-(6-methoxy-3-pyridyl)imidazo[1,2-a]pyridin-3-yl]benzamide], the EC50 in test [1] lay in the range of 0.1 to 100 nM. The 50% inhibitory concentration (IC50) in test [2], in test [3] and in test [4] was 0.01 to 10 nM throughout.
Molecule `COc1cc(-c2cnc3cc(-c4cc(C)no4)ccn23)cc(OC(F)F)c1C(=O)NC1CC1` [compound 270, N-cyclopropyl-2-(difluoromethoxy)-6-methoxy-4-[7-(3-methylisoxazol-5-yl)imidazo[1,2-a]pyridin-3-yl]benzamide] displayed an EC50 in test [1] of 0.1 to 100 nM. The concentration for half-maximal inhibition (IC50) in test [2], in test [3] and in test [4] was 0.01 to 10 nM each time.
Consider `COc1cc(-c2cnc3cc(-c4cncn4C)ccn23)cc(OC(F)F)c1C(=O)NC1CC1` [compound 274, N-cyclopropyl-2-(difluoromethoxy)-6-methoxy-4-[7-(3-methylimidazol-4-yl)imidazo[1,2-a]pyridin-3-yl]benzamide], for which, in test [1], the EC50 fell in the range of 100 to 1000 nM. For the same molecule, the IC50 in test [2] was in the range of 0.01 to 10 nM; in test [3], 10 to 100 nM; in test [4] it was 0.01 to 10 nM.
`COc1cc(-c2cnc3cc(-c4ccc(C5CC5)nn4)ccn23)cc(OC(F)F)c1C(=O)NC1CC1` [compound 285, N-cyclopropyl-4-[7-(6-cyclopropyl-pyridazin-3-yl)imidazo[1,2-a]pyridin-3-yl]-2-(difluoromethoxy)-6-methoxy-benzamide] registered an EC50 in test [1] of 0.1 to 100 nM. In addition, the IC50 in test [2], in test [3] and in test [4] was 0.01 to 10 nM in each case.
For `COc1cc(-n2cnc3cc(-c4cn[nH]c4)ccc32)cc(OC(F)F)c1C(=O)NC1CC1` [compound 306, N-cyclopropyl-2-(difluoromethoxy)-6-methoxy-4-[5-(1H-pyrazol-4-yl)benzimidazol-1-yl]benzamide], in test [1], the EC50 lay within 0.1 to 100 nM. The half-maximal inhibitory concentration (IC50) in test [2], in test [3] and in test [4] was 0.01 to 10 nM each time.
In the case of `COc1cc(-c2cnc3cc(-c4cn[nH]c4)ccn23)cc(OC(F)F)c1C(=O)NC1CC1` [compound 307, N-cyclopropyl-2-(difluoromethoxy)-6-methoxy-4-[7-(1H-pyrazol-4-yl)imidazo[1,2-a]pyridin-3-yl]benzamide], the EC50 in test [1] was 0.1 to 100 nM. Further, the IC50 in test [2], in test [3] and in test [4] was 0.01 to 10 nM in each case.

For orientation: EC50 means the midpoint of the concentration-response curve. A higher EC50 goes with a less potent agent. By IC50 is commonly meant the concentration that gives 50% inhibition.

The values are drawn from US12065443B2, “Compounds and pharmaceutical compositions thereof for the treatment of diseases” (priority 2017, dated 2024).
